Target: T1, CsSWEET17 (Citrus sinensis, UniProt A0ACB8I933)
T1 construct: gene KPL71_027705; full-length CDS (705 bp, about 235 residues) in pDR196, expressed in Saccharomyces cerevisiae CSY4000 (W303 for esculin); seven TMs
Test: […]-sucrose uptake in CSY4000 yeast, nonlinear Michaelis-Menten fit
Assay type: cell-based
Conditions: pH 5.5; 30 °C; proton-coupled transport; labelled compound

T1 sequence (A0ACB8I933 entry or part of it): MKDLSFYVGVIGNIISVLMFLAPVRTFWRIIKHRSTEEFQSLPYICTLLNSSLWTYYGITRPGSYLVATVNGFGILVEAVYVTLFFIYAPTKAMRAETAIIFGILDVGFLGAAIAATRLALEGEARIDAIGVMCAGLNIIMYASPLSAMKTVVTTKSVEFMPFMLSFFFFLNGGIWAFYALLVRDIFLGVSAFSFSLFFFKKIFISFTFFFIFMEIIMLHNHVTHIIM

Km: 291 µM
Structure (SMILES): OC[C@H]1O[C@@](CO)(O[C@H]2O[C@H](CO)[C@@H](O)[C@H](O)[C@H]2O)[C@@H](O)[C@@H]1O [sucrose]
